Molecules are shown by their SMILES.

This is an account of results in patent publication US20120130146A1, “CONTINUOUS ADMINISTRATION OF CILENGITIDE IN CANCER TREATMENTS” (Merck Patent GmbH, priority 2009, published 2012).

The subject of data set [1] is newly diagnosed glioblastoma (GBM). Nature of the data set: Phase I/IIa trial of cilengitide and temozolomide with concomitant radiotherapy in newly diagnosed glioblastoma. The class given is in vivo, human. As to the method:
Purpose: To evaluate safety, toxicity, and efficacy of the combination of the cyclic RGD pentapeptide Cilengitide (=cyclo-(Arg-Gly-Asp-DPhe-NMe-Val)), an inhibitor of integrins avβ3 and avβ5, in addition to standard temozolomide (TMZ) and radiotherapy (RT).
Patients and methods: Fifty-two pts (PS 0-1: 92%, 2: 8%; median age 57 yrs) after biopsy (n=9/17%) or tumor resection (n=43/83%) were treated with standard TMZ/RT (Stupp et al. NEJM 2005). In addition Cilengitide (500 mg i.v., 2×/week) was started one week before TMZ/RT and given throughout for the duration of chemotherapy or until progression. Primary endpoint was progression free survival rate at 6 months (target: 65%). Patients were followed with MRI every 2 months. Histopathologic diagnosis and MRI imaging were independently reviewed, MGMT promotor methylation status was assessed in 45 (86.5%) pts.

Data set [2] relates to human umbilical vein endothelial cells (HUVECs). Nature of the data set: Growth (Alamar Blue) assay on HUVEC, Example 5. The class given is cell-based. The conditions noted are these: agent alone. The text has this: The methods established and described in detail previously (Goodman and Hahn a; b) were used to measure the effect of combinations of integrin inhibitors and chemotherapeutics on carcinoma cell and human endothelial cell proliferation.
Points were run in duplicate or in triplicate. Reagent blanks, containing media plus Alamar Blue without cells, were run on each plate. Blank values were subtracted from test values and were routinely 5-10% of uninhibited control values.
5.5 Methods of Evaluation and Statistics Chemotherapeutic agents and αv-integrin blockers were serially diluted alone or together (combination therapy). In some assays the chemotherapeutic agent was serially diluted alone or in combination with of alpha-v integrin blocker. Growth inhibition curves were plotted and a shift of the combination therapy curve to lower concentrations in relation to the single agent curves was interpreted as an additional effect, produced by combination versus monotherapy.
The αv-integrin competitive inhibitor Cilengitide (EMD 121974) was tested alone and in combination with vinorelbine in a serum growth stimulation assay using human carcinoma cells or human umbilical vein endothelial cells (HUVECs). In these assays cells are cultured in serum, or in an endothelial growth stimulation medium (Goodman & Hahn).
In general terms: Alamar Blue is a resazurin reagent that responds to reducing activity.

The conditions of data set [3]: human, in vivo; cited from earlier work.
[4] abbreviates: Cilengitide 500 mg i.v. 2x/week in addition to standard TMZ/RT.

By IC50 is commonly meant the concentration that inhibits the measured activity by half. The term half-life denotes how long it takes for the measured level to halve. In the case of `CC(C)[C@H]1C(=O)N[C@@H](CCCN=C(N)N)C(=O)NCC(=O)N[C@@H](CC(=O)O)C(=O)N[C@H](Cc2ccccc2)C(=O)N1C` [Cilengitide, cyclo-(Arg-Gly-Asp-DPhe-NMeVal)], in data set [1] (setting [4]), the “haematological grade 3 and 4 toxicity: lymphopenia” value was 53.8%; the “haematological grade 3 and 4 toxicity: neutropenia” value was found to be 9.6%; the “haematological grade 3 and 4 toxicity: thrombocytopenia” value worked out at 13.4%; the “patients with treatment related non-hematologic grade 3 toxicities” value was found to be 5.7%. Moreover, in data set [1] (all 52 pts, Cilengitide in addition to TMZ/RT), the “patients progression free at 6 months (PFS-6)” value is given as 65.4%. Further, the tolerability entry in data set [1] (combination of Cilengitide and TMZ/RT) is listed as “well tolerated”. Further, in data set [1] (subgroup with methylated MGMT promoter (23/52), Cilengitide in addition to TMZ/RT), the PFS-6 rate is on record as 91%. Further, the PFS-6 rate in data set [1] (subgroup with unmethylated MGMT promotor (22/52), Cilengitide in addition to TMZ/RT) worked out at 40.9%. In addition, the IC50 in data set [2] stood at 700 nM. Also, the half-life in data set [3] is 3 to 5 h.
